From US7671054B1, “Reverse-turn mimetics and method relating thereto” (Choongwae Pharma Corporation, priority 2001, dated 2010)
Where two headings read alike, the source gives them in different places.

Columns and labels:
HCT116 cells = assay: Growth inhibition assay (MTS); assay type: cell-based; settings: Homo sapiens, HCT116 cells, 48 hours treatment, MTS, read-out: Growth Inhibition (GI50, uM) HCT116
Experimental: (§1) SW480 or HCT116 cells were placed into 96 well microplate (10^4cells/well) and incubated for 24 hours at 37° C. 20 μl of [3-(4,5-dimethylthiazol-2-yl)-5-(3-carboxyphenyl)-2-(4-sulfophenyl)-2H-tetrazolium, inner salt](MTS) solution (Promega) was added into each well and the absorbance after 2 hour incubation at 37° C. (negative control) was read. And then, the cells were treated with TCF4 compound at various concentrations for 48 hours. 20 μl of MTS solution (Promega) was added into each well and incubated for 2 hour at 37° C. Cell viability was measured by reading the absorbance at 490 nm using a microplate reader (Molecular device) and cytotoxicity of a compound at each concentration was calculated.
as §1, with “a test” for “TCF4”

SW480 cells = assay: Growth inhibition assay (MTS); assay type: cell-based; settings: Homo sapiens, SW480 cells, 48 hours treatment, MTS, read-out: Growth Inhibition (GI50, uM) SW480
Experimental: as §1
as §1, with “a test” for “TCF4”

Row | SMILES | GI50 (HCT116 cells; HCT-116, 48 h, Table 5) [µM] | GI50 (SW480 cells; SW480, 48 h, Table 5) [µM] | other results
1 | CN(Cc1ccccc1)c1cccc(CN2C[C@H]3N(C(=O)CN(C)N3C(=O)NCc3ccccc3)[C@@H](Cc3ccc(O)cc3)C2=O)c1 [Compound 56] | 9.1 | 10.8 | –
2 | C=CCN1CC(=O)N2[C@@H](Cc3ccc(O)cc3)C(=O)N([C@H](C)c3ccccc3)C[C@@H]2N1C(=O)NCc1ccccc1 [Compound 153] | 14.3 ± 7 | 12.8 ± 1.6 | –
3 | C=CCN1CC(=O)N2[C@@H](Cc3ccc(OP(=O)(O)O)cc3)C(=O)N(Cc3ccc(Cl)c(N(C)C)c3)C[C@@H]2N1C(=O)NCc1ccccc1 [Compound 131] | – | – | GI50 (HCT116 cells; HCT-116, Table 5): 1.7 ± 0.5 µM; GI50 (SW480 cells; Table 5): 2.3 ± 0.1 µM
4 | C=CCN1CC(=O)N2[C@@H](CC3(O)C=CC(=O)C=C3)C(=O)N(Cc3ccc(F)cc3F)C[C@@H]2N1C(=O)NCc1ccccc1 [Compound 151] | 8.6 ± 0.9 | 11.2 ± 1.3 | –
5 | CN1CC(=O)N2[C@@H](Cc3ccc(NC=O)cc3)C(=O)N(Cc3cccc4ccccc34)C[C@@H]2N1C(=O)NCc1ccccc1 [Compound 44] | 4.2 ± 0.5 | 3.8 ± 0.4 | –
6 | CN1CC(=O)N2[C@@H](Cc3ccc(O)cc3)C(=O)N(Cc3ccccc3SC(F)(F)F)C[C@@H]2N1C(=O)NCc1ccccc1 [Compound 6] | 3.91 | 3.96 | –
7 | [2H]c1cc(O)cc([2H])c1C[C@H]1C(=O)N(Cc2cccc3ccccc23)C[C@H]2N1C(=O)CN(C)N2C(=O)NCc1ccccc1 [Compound 142] | 3.3 ± 0.4 | 3.2 ± 0.3 | –
8 | C=CC[C@@H]1CC(=O)N2[C@H](CN(Cc3cccc4scnc34)C(=O)[C@@H]2Cc2ccc(O)cc2)N1C(=O)NCc1ccccc1 | – | – | GI50 (HCT116 cells; HCT-116, 48 h, Example 21): 1.4 µM; GI50 (SW480 cells; SW480, 48 h, Example 21): 1.2 µM
9 | C#CCn1ncc2ccc(CN3C[C@H]4N(C(=O)CN(C)N4C(=O)NCc4ccccc4)[C@@H](Cc4ccc(O)cc4)C3=O)cc21 [Compound 68] | 3.8 ± 0.6 | 3.7 ± 0.2 | –
10 | C#CCn1cc2c(CN3C[C@H]4N(C(=O)CN(C)N4C(=O)NCc4ccccc4)[C@@H](Cc4ccc(O)cc4)C3=O)cccc2n1 [Compound 71] | 3.6 ± 0.7 | 4.6 ± 0.5 | –
11 | C=CCN1CC(=O)N2[C@@H](Cc3ccc(O)cc3)C(=O)N(Cc3cccc4c3OCCO4)C[C@@H]2N1C(=O)NCc1ccccc1 [Compound 173] | – | – | GI50 (HCT116 cells; HCT-116, Table 5): 0.8 ± 0.1 µM; GI50 (SW480 cells; Table 5): 0.6 ± 0.1 µM
12 | CN(C)c1cccc(CN2C[C@H]3N(C(=O)CN(C)N3C(=O)NCc3ccccc3)[C@@H](Cc3ccc(O)cc3)C2=O)c1 [Compound 55] | 4.1 ± 0.7 | 4.6 ± 0.5 | –
13 | CN1CC(=O)N2[C@@H](Cc3ccc(O)cc3)C(=O)N(Cc3cccc(OCCN4CCOCC4)c3)C[C@@H]2N1C(=O)NCc1ccccc1 [Compound 102] | 4.9 ± 1.2 | 2.5 ± 0.4 | –
14 | C=CCN1CC(=O)N2[C@@H](Cc3ccc(OP(=O)(O)O)cc3)C(=O)N(Cc3cccc4c3OCCN4C)C[C@@H]2N1C(=O)NCc1ccccc1 [Compound 139] | – | – | GI50 (HCT116 cells; HCT-116, Table 5): 1 ± 0.2 µM; GI50 (SW480 cells; Table 5): 1.2 ± 0.1 µM
15 | CN1CC(=O)N2[C@@H](Cc3ccc(O)cc3)C(=O)N(Cc3ccc4cn[nH]c4c3)C[C@@H]2N1C(=O)NCc1ccccc1 [Compound 64] | 19 ± 1.6 | 12 ± 0.7 | –
16 | Cc1cc(C)c(N(C)C)c(CN2C[C@H]3N(C(=O)CN(C)N3C(=O)NCc3ccccc3)[C@@H](Cc3ccc(O)cc3)C2=O)c1 [Compound 28] | 5.47 | 3.57 | –
17 | C=CCN1CC(=O)N2[C@@H](Cc3ccc(O)c(F)c3)C(=O)N(Cc3ccc(F)cc3)C[C@@H]2N1C(=O)NCc1ccccc1 [Compound 156] | 3.8 ± 0.2 | 3.7 ± 0.3 | –
18 | Cc1ccc(N(C)C)c(CN2C[C@H]3N(C(=O)CN(C)N3C(=O)NCc3ccccc3)[C@@H](Cc3ccc(O)cc3)C2=O)c1 [Compound 29] | 7.93 | 16 | –
19 | CN(C)Cc1cccc(CN2C[C@H]3N(C(=O)CN(C)N3C(=O)NCc3ccccc3)[C@@H](Cc3ccc(O)cc3)C2=O)c1 [Compound 89] | 7.5 ± 1 | 14.6 ± 1.4 | –
20 | C=CC[C@@H]1CC(=O)N2[C@H](CN(Cc3cccc(OC)c3OC)C(=O)[C@@H]2Cc2ccc(O)cc2)N1C(=O)NCc1ccccc1 | – | – | GI50 (HCT116 cells; HCT-116, 48 h, Example 21): 4.91 µM; GI50 (SW480 cells; SW480, 48 h, Example 21): 4.1 µM
21 | C=CCN1CC(=O)N2[C@@H](Cc3ccc(OP(=O)(O)O)cc3)C(=O)N(Cc3cccc4scnc34)C[C@@H]2N1C(=O)NCc1ccccc1 [Compound 167] | – | – | GI50 (HCT116 cells; HCT-116, Table 5): 0.2 ± 0.02 µM; GI50 (SW480 cells; Table 5): 0.3 ± 0.02 µM
22 | C=CCN1CC(=O)N2[C@@H](Cc3ccc(O)cc3)C(=O)N(Cc3ccc4c(c3)OCCN4C)C[C@@H]2N1C(=O)NCc1ccccc1 [Compound 119] | 9.5 ± 1.1 | 10 ± 1.3 | –
23 | C#CCn1cc2cccc(CN3C[C@H]4N(C(=O)CN(C)N4C(=O)NCc4ccccc4)[C@@H](Cc4ccc(O)cc4)C3=O)c2n1 [Compound 79] | 5.2 ± 0.4 | 2.8 ± 0.2 | –
24 | CN1CC(=O)N2[C@@H](Cc3ccc(O)cc3)C(=O)N(Cc3cccc(N4CCCC4=O)c3)C[C@@H]2N1C(=O)NCc1ccccc1 [Compound 121] | 13.1 ± 0.6 | 8.2 ± 0.5 | –
25 | CN(C)c1ccccc1CN1C[C@H]2N(C(=O)CN(C)N2C(=O)NCc2ccccc2)[C@@H](Cc2ccc(O)cc2)C1=O [Compound 22] | 3.26 | 6.58 | –
26 | C=CCN1CC(=O)N2[C@@H](CN([C@H](C)c3cccc4cccnc34)C(=O)[C@@H]2Cc2ccc(O)cc2)N1C(=O)NCc1ccccc1 [Compound 161] | 4.1 ± 0.5 | 4.2 ± 0.4 | –
27 | C[C@H](c1ccc(Cl)c2cccnc12)N1CC2N(C(=O)CN(C)N2C(=O)NCc2ccccc2)[C@@H](Cc2ccc(O)cc2)C1=O (stereo partly shown) [Compound 168] | 6.5 ± 0.3 | 6.2 ± 0.8 | –
28 | CN1CC(=O)N2[C@@H](Cc3ccc(O)cc3)C(=O)N(Cc3ccc(F)cc3F)C[C@@H]2N1C(=O)NCc1ccc(F)cc1 [Compound 170] | 8.6 ± 0.8 | 8.9 ± 0.8 | –

Second part, led by results:

Row | GI50 (HCT116 cells; HCT-116, 48 h, Table 5) [µM] | GI50 (SW480 cells; SW480, 48 h, Table 5) [µM] | SMILES | other results
29 | 2.3 ± 0.4 | 2.4 ± 0.2 | C=CCN1CC(=O)N2[C@@H](Cc3ccc(O)cc3)C(=O)N(Cc3cccc(NC)c3)C[C@@H]2N1C(=O)NCc1ccccc1 [Compound 163] | –
30 | 1.81 | 24.5 | CCN(C)c1cccc(CN2C[C@H]3N(C(=O)CN(C)N3C(=O)NCc3ccccc3)[C@@H](Cc3ccc(O)cc3)C2=O)c1 [Compound 25] | –
31 | 1.6 ± 0.1 | 1.6 ± 0.1 | C#CCN1CC(=O)N2[C@@H](Cc3ccc(O)cc3)C(=O)N(Cc3ccc4c(c3)OCCO4)C[C@@H]2N1C(=O)NCc1ccccc1 [Compound 107] | –
32 | 1.1 ± 0.1 | 1.3 ± 0.3 | C=CCN1CC(=O)N2[C@@H](Cc3ccc(O)cc3)C(=O)N(Cc3ccc(Cl)c4cccnc34)C[C@@H]2N1C(=O)NCc1ccccc1 [Compound 109] | –
33 | 1.8 ± 0.2 | 1.6 ± 0.2 | C=CCN1CC(=O)N2[C@@H](Cc3ccc(O)cc3)C(=O)N(Cc3cccc4sc(N5CCCCC5)nc34)C[C@@H]2N1C(=O)NCc1ccccc1 [Compound 188] | –
34 | 1 ± 0.3 | 1.3 ± 0.1 | C=CCN1CC(=O)N2[C@@H](Cc3ccc(O)cc3)C(=O)N(Cc3ccc(F)c(F)c3)C[C@@H]2N1C(=O)NCc1ccccc1 [Compound 148] | –
35 | 0.2 ± 0.02 | 0.2 ± 0.02 | C=CCN1CC(=O)N2[C@@H](Cc3ccc(O)cc3)C(=O)N(Cc3ccc(F)c4scnc34)C[C@@H]2N1C(=O)NCc1ccccc1 [Compound 194] | –
36 | 2.3 ± 0.1 | 2.3 ± 0.1 | C=CCN1CC(=O)N2[C@@H](Cc3ccc(O)cc3)C(=O)N(Cc3ccc(OC(F)(F)F)cc3)C[C@@H]2N1C(=O)NCc1ccccc1 [Compound 181] | –
37 | 2.6 ± 0.1 | 1.8 ± 0.2 | CCCN1CC(=O)N2[C@@H](Cc3ccc(O)cc3)C(=O)N(Cc3ccc(Cl)c4cccnc34)C[C@@H]2N1C(=O)NCc1ccccc1 [Compound 120] | –
38 | 1.9 ± 0.1 | 2.1 ± 0.3 | C#CCN1CC(=O)N2[C@@H](Cc3ccc(O)cc3)C(=O)N(Cc3ccc(Cl)c4cccnc34)C[C@@H]2N1C(=O)NCc1ccccc1 [Compound 110] | –
39 | 1.91 | 1.99 | CN1CC(=O)N2[C@@H](Cc3ccc(O)cc3)C(=O)N(Cc3ccc(Cl)c(Cl)c3)C[C@@H]2N1C(=O)NCc1ccccc1 [Compound 4] | –
40 | 0.7 ± 0.07 | 1.1 ± 0.3 | CCCN1CC(=O)N2[C@@H](Cc3ccc(O)cc3)C(=O)N(Cc3cccc4cccnc34)C[C@@H]2N1C(=O)NCc1ccccc1 [Compound 94] | –
41 | 1.1 ± 0.1 | 1.9 ± 0.4 | CCN1CC(=O)N2[C@@H](Cc3ccc(O)cc3)C(=O)N(Cc3cccc4cccnc34)C[C@@H]2N1C(=O)NCc1ccccc1 [Compound 93] | –
42 | 0.8 ± 0.7 | 1.4 ± 0.4 | C=CCN1CC(=O)N2[C@@H](Cc3ccc(O)cc3)C(=O)N(Cc3ccccc3)C[C@@H]2N1C(=O)NCc1ccccc1 [Compound 134] | –
43 | 1.5 ± 0.1 | 1.6 ± 0.3 | C=CCN1CC(=O)N2[C@@H](Cc3ccc(O)cc3)C(=O)N(Cc3ccc(OC)cc3OC)C[C@@H]2N1C(=O)NCc1ccccc1 [Compound 183] | –
44 | 3.1 ± 0.8 | 3.2 ± 0.4 | [2H]C([2H])(c1ccc(O)cc1)[C@H]1C(=O)N(Cc2cccc3ccccc23)C[C@H]2N1C(=O)CN(C)N2C(=O)NCc1ccccc1 [Compound 135] | –
